Assay results: EP0906100B1, “USE OF 5-HT 1A? RECEPTOR ANTAGONISTS FOR THE TREATMENT OF URINARY INCONTINENCE” (RECORDATI S.A., priority 1996, dated 1997)
Read-outs that look alike come from different tables or passages of the source.

What was measured:
[1] = biological target: α1-adrenergic receptor; assay: [3H]prazosin binding (α1-receptors), rat cerebral cortices; conditions: 0.35 nM [3H]prazosin, read-out: Binding affinity for the α1-adrenergic receptor, Ki
Description: [^3H]prazosin binding (α1-receptors):
Rat cerebral cortices were homogenized in 50 volumes of ice-cold 50 mM Tris-HCl pH 7.4. The homogenates were centrifuged at 48,000 x g for 10 minutes, and the pellets were resuspended in the same volume of ice-cold buffer, centrifuged, and resuspended two more times. The final pellets were resuspended in 100 volumes of 50 mM Tris-HCl, pH 7.4, containing 0.1 % ascorbic acid and 10 µM pargyline. […] Non-specific binding was determined in the presence of 10 µM phentolamine. The incubations were terminated by rapid filtration through Whatman GF/B filters using a Brandel cell harvester, after which the filters were washed with 3x3 ml of ice-cold buffer. The radioactivity retained on the filters was determined by liquid scintillation counting.

[2] = test system: pre-synaptic 5-HT1A receptor; assay: Antagonism of hypothermia induced by 8-OH-DPAT in mice; type: in vivo; conditions: s.c., hypothermia induced by 0.5 mg/kg s.c. 8-OH-DPAT
Description: Antagonism of hypothermia induced by 8-OH-DPAT in mice:
The antagonistic effect of 5-HT1A receptor antagonists on hypothermia induced by 8-OH-DPAT was evaluated by the method of Moser (Moser, Eur. J. Pharmacol., 193, 165, 1991) with minor modifications.
Male CD-1 mice (28-38 g) obtained from Charles River (Italy) were housed in a climate-controlled room (temperature 22 ± 2°C; humidity 55 ± 15%) and maintained on a 12 h light/dark cycle with free access to food and water. On the day of experiment, mice were placed singly in clear plastic boxes under the same ambient conditions. Body temperature was measured by the insertion of a temperature probe (Termist TM-S, LSI) into the rectum to a depth of 2 cm. Rectal temperature was measured immediately prior to subcutaneous injection of the test compound and 30 min later. All animals then received 8-OH-DPAT (0.5 mg/kg s.c.) and their temperature was measured 30 min later. For each animal, temperature changes were calculated with respect to pretreatment values and the mean values were calculated for each treatment group.

[3] = test system: cystometric parameters (bladder volume capacity, micturition pressure); assay: Cystometric parameters (BVC, MP) in the conscious rat; type: in vivo, rats; conditions: for BVC before treatment / MP before treatment: baseline; for BVC before treatment / MP before treatment / BVC after treatment / MP after treatment: mean±S.E.; for ED50: Rattus norvegicus, read-out: approximate ED50 value, reduction of MP
Description: Male Sprague Dawley rats (Crl: CD° BR) weighing 250-350 g were used. The animals were housed with free access to food and water and maintained on a forced 12 h alternating light-dark cycle at 22-24°C for at least one week, except during performance of the experiment.
An approximately 10 mm long midline incision was made in the shaved and cleaned abdominal wall. The urinary bladder was gently freed from adhering tissues, emptied, and then cannulated, via an incision at the dome, with a polyethylene cannula (Portex PP30), which was permanently sutured with silk thread. The cannula was exteriorized through a subcutaneous tunnel in the retroscapular area, where it was connected with a plastic adapter to avoid the risk of removal by the animal. For intravenous (i.v.) injection of test compounds, a PE 50 polyethylene tubing filled with physiological saline was inserted into the jugular vein and exteriorized in the retroscapular area.
Since cystometrographic parameters have been reported to be influenced by the time elapsed after catheter implantation […].
On the day of the experiment, the rats were placed in Bollman's cages; after a stabilization period of 20 min, the free tip of the bladder catheter was connected through a T-shaped tube to a pressure transducer (Bentley T 800/Marb P 82) and to a peristaltic pump (Gilson minipuls 2) for a continuous infusion, at the constant rate of 0.1 ml/min, of saline solution into the urinary bladder. The intraluminal pressure signal during infusion was continuously recorded on a polygraph (Battaglia Rangoni KO 380 with ADC1/T amplifier). Two urodynamic parameters were evaluated: bladder volume capacity (BVC) and micturition pressure (MP). BVC (in ml) is defined as the minimum volume infused after which detrusor contraction (followed by micturition) occurs. MP (in mmHg) is defined as the maximal intravesical pressure induced by the contraction of detrusor during micturition. Basal BVC and MP values were calculated as the means of the first two recorded cystometrograms. At this point, the infusion was interrupted and the test compounds were administered. Fifteen minutes after intravenous administration, or one hour after oral drug administration, two additional cystometrograms were recorded in each animal and the mean values of the two cystometrographic parameters were calculated.
The statistical significance of the differences in urodynamic parameter values was evaluated by Student's t test for paired data. Only changes showing a probability P<0.01 were considered to be significant.

[4] = 30 µg/kg i.v., 15 min after injection
[5] = 100 µg/kg i.v., 15 min after injection
[6] = 300 µg/kg i.v., 15 min after injection
[7] = 10 mg/kg p.o., 1 hour after oral administration
[8] = 30 mg/kg p.o., 1 hour after oral administration
[9] = conscious rats, i.v., NAN-190 up to the highest administrable dose of 300 µg/kg
[10] = 1000 µg/kg i.v., 15 min after injection
[11] = 1 mg/kg p.o., 1 hour after oral administration
[12] = 3 mg/kg p.o., 1 hour after oral administration

| Compound | BVC before treatment ([3]; 100 µg/kg i.v. group) | MP before treatment ([3]; 100 µg/kg i.v. group) | BVC % change [3, 5] | MP % change [3, 5] | BVC after treatment [3, 5] | MP after treatment [3, 5] | BVC before treatment ([3]; 300 µg/kg i.v. group) | MP before treatment ([3]; 300 µg/kg i.v. group) | BVC % change [3, 6] | MP % change [3, 6] | BVC after treatment [3, 6] | MP after treatment [3, 6] | BVC before treatment ([3]; 10 mg/kg p.o. group) | MP before treatment ([3]; 10 mg/kg p.o. group) | BVC % change [3, 7] | MP % change [3, 7] | BVC after treatment [3, 7] | MP after treatment [3, 7] | effect on BVC (in words) [3, 9] | also measured |
| --- | --- | --- | --- | --- | --- | --- | --- | --- | --- | --- | --- | --- | --- | --- | --- | --- | --- | --- | --- | --- |
| COc1ccccc1N1CCN(CCCCN2C(=O)c3ccccc3C2=O)CC1 [NAN-190, 1-(2-methoxyphenyl)-4-[4-(2-phthalimido)-butyl]-piperazine] | 0.68 ± 0.10 mL | 93.8±11.5 mmHg | +12% | -12% | 0.76 ± 0.10 mL | 82.5±9.2 mmHg | 0.62 ± 0.06 mL | 86.6±10.3 mmHg | -1% | +2% | 0.61 ± 0.06 mL | 88.4±11.8 mmHg | 0.54 ± 0.08 mL | 106.1±10.4 mmHg | -14% | -14% | 0.46 ± 0.07 mL | 90.8±12.5 mmHg | devoid of significant effects | Ki [1]: 4.8 nM; ID50 (95%) C.L., antagonistic activity for the pre-synaptic 5-HT1A receptor [2]: not active; BVC before treatment ([3]; 30 µg/kg i.v. group): 0.74 ± 0.09 mL; MP before treatment ([3]; 30 µg/kg i.v. group): 99.4±10.1 mmHg; BVC % change [3, 4]: +6%; MP % change [3, 4]: +5%; BVC after treatment [3, 4]: 0.78 ± 0.10 mL; MP after treatment [3, 4]: 104.6±9.7 mmHg; BVC before treatment ([3]; 30 mg/kg p.o. group): 0.71 ± 0.09 mL; MP before treatment ([3]; 30 mg/kg p.o. group): 105.1±10.5 mmHg; BVC % change [3, 8]: -15%; MP % change [3, 8]: -9%; BVC after treatment [3, 8]: 0.60 ± 0.09 mL; MP after treatment [3, 8]: 95.8±15.3 mmHg; effect on MP (in words) [3, 9]: devoid of significant effects; activity on cystometric parameters after oral administration (in words) ([3]; conscious rats, oral, doses up to 30 mg/kg): inactive |
| CCN(CC)CC#CCOC(=O)C(O)(c1ccccc1)C1CCCCC1 (centres unmarked) [Oxybutynin, oxybutynin] | 0.82 ± 0.15 mL | 95.2±9.2 mmHg | +9% | -19% | 0.89 ± 0.18 mL | 77.4±10.3 mmHg | 0.83 ± 0.13 mL | 82.3±8.7 mmHg | 0% | -39% | 0.83 ± 0.12 mL | 50.5±6.3 mmHg | 0.55 ± 0.08 mL | 98.3±9.0 mmHg | +27% | -68% | 0.70 ± 0.11 mL | 31.8±3.9 mmHg | inactive | BVC before treatment ([3]; 1000 µg/kg i.v. group): 0.94 ± 0.19 mL; MP before treatment ([3]; 1000 µg/kg i.v. group): 110.9±10.2 mmHg; BVC % change [3, 10]: +7%; MP % change [3, 10]: -73%; BVC after treatment [3, 10]: 1.00 ± 0.18 mL; MP after treatment [3, 10]: 29.6±5.6 mmHg; BVC before treatment ([3]; 1 mg/kg p.o. group): 0.56 ± 0.11 mL; MP before treatment ([3]; 1 mg/kg p.o. group): 92.1±13.3 mmHg; BVC % change [3, 11]: +31%; MP % change [3, 11]: -16%; BVC after treatment [3, 11]: 0.74 ± 0.11 mL; MP after treatment [3, 11]: 77.3±9.8 mmHg; BVC before treatment ([3]; 3 mg/kg p.o. group): 0.54 ± 0.07 mL; MP before treatment ([3]; 3 mg/kg p.o. group): 82.1±5.1 mmHg; BVC % change [3, 12]: +18%; MP % change [3, 12]: -49%; BVC after treatment [3, 12]: 0.63 ± 0.13 mL; MP after treatment [3, 12]: 42.1±5.1 mmHg; ED50 ([3]; iv, conscious rats, i.v.): ~0.4 mg/kg; ED50 ([3]; conscious rats, oral administration): ~4 mg/kg |
